These results are taken from patent US10294234B2, “HIV inhibitor compounds” (priority 2017, dated 2019).

A word on the EC50: it is the concentration that produces a half-maximal response.

Where two headings read alike, the source gives them in different places. A value given as a limit tells only on which side of the number the result lay.

A summary of the method of data set [1]:
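Test compounds at 1 uM incubated in duplicate with dog, rat and human liver microsomes (0.5 mg/mL protein) plus NADPH-regenerating system; sampled at 2, 12, 25, 45 and 65 minutes. Parent remaining monitored by LC/MS/MS; Clint calculated from in vitro t1/2.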

For data set [2], the system named is HIV-1 (IIIB) in MT-4 cells. The data set can be described thus: MT-4 HIV assay. Format: cell-based. Conditions: Human immunodeficiency virus 1, MT4, 120 h. The method, boiled down:
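MT-4 cells infected with HIV-1 IIIB (1:250 stock dilution) were incubated with 1:3 serially diluted compounds in RPMI with 10% FBS for 5 days at 37 °C. Cell Titer Glo luminescence was the readout. Plates included mock-infected wells, no-drug wells and 5 uM AZT controls.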

[3] abbreviates: human liver microsomes 0.5 mg/mL, 1 uM compound, NADPH.
Where [4] appears, read: HIV-1 (IIIB), MT-4 cells, 5 days, Cell Titer Glo, read-out: EC50.

Regarding `COC(=O)N[C@H](C(=O)N[C@@H](Cc1ccc(C#Cc2ccc(N3CCN([C@H]4CCOC4)CC3)nc2)cc1)[C@@H](O)CN(Cc1c(F)cc(-c2ccn(C(F)F)n2)cc1F)NC(=O)[C@@H](NC(=O)OC)C(C)(C)C(F)(F)F)C(C)(C)C(F)(F)F` [Example 145, Methyl ((5S,8S,9S,14S)-11-(4-(1-(difluoromethyl)-1H-pyrazol-3-yl)-2,6-difluorobenzyl)-16,16,16-trifluoro-9-hydroxy-15,15-dimethyl-3,6,13-trioxo-8-(4-((6-(4-((S)-tetrahydrofuran-3-yl)piperazin-1-yl)pyridin-3-yl)ethynyl)benzyl)-5-(1,1,1-trifluoro-2-methylpropan-2-yl)-2-oxa-4,7,11,12-tetraazahexadecan-14-yl)carbamate], in data set [1] (setting [3]), the “Human Pred Cl.” value is on record as under 0.11 L/H/kg. The EC50 in data set [2] was 5.06 nM.

For `COC(=O)N[C@H](C(=O)N[C@@H](Cc1ccc(C#Cc2cnc(N3C[C@H]4C[C@@H]3CN4C3COC3)nc2)cc1)[C@@H](O)CN(Cc1c(F)cc(-c2ccn(CC(F)F)n2)cc1F)NC(=O)[C@@H](NC(=O)OC)C(C)(C)C(F)(F)F)C(C)(C)C(F)(F)F` [Example 25, Methyl ((5S,8S,9S,14S)-11-(4-(1-(2,2-difluoroethyl)-1H-pyrazol-3-yl)-2,6-difluorobenzyl)-16,16,16-trifluoro-9-hydroxy-15,15-dimethyl-8-(4-((2-((1R,4R)-5-(oxetan-3-yl)-2,5-diazabicyclo[2.2.1]heptan-2-yl)pyrimidin-5-yl)ethynyl)benzyl)-3,6,13-trioxo-5-(1,1,1-trifluoro-2-methylpropan-2-yl)-2-oxa-4,7,11,12-tetraazahexadecan-14-yl)carbamate], in data set [1] (setting [3]), the “Human Pred Cl.” value worked out at 0.16 L/H/kg. In addition, the “Rat. Pred. Cl.” value in data set [1] (rat liver microsomes 0.5 mg/mL, 1 uM compound, NADPH) amounted to 1.41 L/H/kg. Further, the EC50 in data set [2] (setting [4]) was 3.19 nM.

As to `COC(=O)N[C@H](C(=O)N[C@@H](Cc1ccc(C#Cc2ccc(N3CC4CCC(C3)N4C3COC3)nc2)cc1)[C@@H](O)CN(Cc1c(F)cc(-c2ccn([C@H]3CCOC3)n2)cc1F)NC(=O)[C@@H](NC(=O)OC)C(C)(C)C(F)(F)F)C(C)(C)C(F)(F)F` [Example 14, Methyl ((5S,8S,9S,14S)-11-(2,6-difluoro-4-(1-((S)-tetrahydrofuran-3-yl)-1H-pyrazol-3-yl)benzyl)-16,16,16-trifluoro-9-hydroxy-15,15-dimethyl-8-(4-((6-(8-(oxetan-3-yl)-3,8-diazabicyclo[3.2.1]octan-3-yl)pyridin-3-yl)ethynyl)benzyl)-3,6,13-trioxo-5-(1,1,1-trifluoro-2-methylpropan-2-yl)-2-oxa-4,7,11,12-tetraazahexadecan-14-yl)carbamate], the “Human Pred Cl.” value in data set [1] (human, microsomes) amounted to 0.66 L/H/kg. For the same compound, the “Rat. Pred. Cl.” value in data set [1] (rat, microsomes) was 1.13 L/H/kg. Moreover, the EC50 in data set [2] (setting [4]) is 4.39 nM.

Consider `COC(=O)N[C@H](C(=O)N[C@@H](Cc1ccc(C#Cc2ccc(N3CC4CCC(C3)N4C3COC3)nc2)cc1)[C@@H](O)CN(Cc1c(F)cc(-c2cnn(C(F)F)c2)cc1F)NC(=O)[C@@H](NC(=O)OC)C(C)(C)CF)C(C)(C)CF` [Example 233, methyl ((5S,8S,9S,14S)-11-(4-(1-(difluoromethyl)-1H-pyrazol-4-yl)-2,6-difluorobenzyl)-16-fluoro-5-(1-fluoro-2-methylpropan-2-yl)-9-hydroxy-15,15-dimethyl-8-(4-((6-(8-(oxetan-3-yl)-3,8-diazabicyclo[3.2.1]octan-3-yl)pyridin-3-yl)ethynyl)benzyl)-3,6,13-trioxo-2-oxa-4,7,11,12-tetraazahexadecan-14-yl)carbamate], for which the “Human Pred Cl.” value in data set [1] (human, microsomes) is given as under 0.11 L/H/kg. For the same compound, the “Rat. Pred. Cl.” value in data set [1] (rat, microsomes) was under 0.18 L/H/kg. Also, in data set [2] (setting [4]), the EC50 stood at 2.71 nM.
